Test results taken from patent publication US8884101B2, “Method of gene introduction into Triticum plant using Agrobacterium, and a method of producing transformed Triticum plant” (priority 2009, dated 2014).

Tested on: immature embryos of bread wheat (variety: Fielder)
Experiment: GUS gene expression in wheat immature embryos; effect of adding plant hormone to coculture medium (Example 9)
Format: cell-based, bread wheat (Triticum aestivum)
Details: 5 days resting culture; for degree of GUS gene expression relative to coculture medium not containing plant hormones (FIG. 4) / degree of GUS gene expression relative to coculture medium not containing plant hormones (FIG. 6): 5 μM in coculture medium; for degree of GUS gene expression relative to coculture medium not containing plant hormones (FIG. 4): 16 or 17 immature embryos per group; for degree of GUS gene expression relative to coculture medium not containing plant hormones (FIG. 5): 0.5 μM in coculture medium, 10 immature embryos per group; for degree of GUS gene expression relative to coculture medium not containing plant hormones (FIG. 6): 18 or 19 immature embryos per group
Experimental: Bread wheat (variety: Fielder) was cultivated in a greenhouse equipped with an air conditioner, and the immature embryos (size: 1.5 to 3.0 mm) of the bread wheat were aseptically collected on the 14th day after flowering and were washed once with an Inf liquid medium. Pretreatment (centrifugation at 15000 rpm for 10 min) was performed to enhance the efficiency of gene introduction in an Inf liquid medium. Agrobacterium strain EHA101 (pIG121Hm) was suspended at about 1.0×10^9 cfu/mL in an Inf liquid medium containing 100 μM acetosyringone to prepare an inoculation source. The inoculation source was added to the immature embryos, and the mixture was stirred for 30 sec, followed by leaving to stand at room temperature for 5 min. The immature embryos inoculated with Agrobacterium were placed onto a Co-Cul coculture medium containing 100 μM acetosyringone, 5 μM AgNO3, and 5 μM CuSO4 and also containing 5 μM kinetin or 4PU; 0.5 μM 2,4-D, dicamba, or picloram; or 5 μM 2,4-D, dicamba, or picloram in such a manner that the scutellum faced upward, and were cocultured at 23° C. in the dark. As a control, a Co-Cul coculture medium not containing any plant hormone was used.
On the 2nd day from the beginning of the coculture, the radicles, germs, and embryonic axes were excised using a scalpel and tweezers. The immature embryos were placed onto a resting medium (the composition is the same as that described in Example 1), followed by cultivation at 25° C. in the dark for 5 days. Subsequently, 10 to 19 immature embryos were collected from each group and were immersed in a 0.1 M phosphate buffer (pH 6.8) containing 0.1% Triton X-100 at 37° C. for 1 hr. The phosphate buffer was removed, and a phosphate buffer containing 1.0 mM 5-bromo-4-chloro-3-indolyl-β-D-glucuronic acid (X-gluc) and 20% methanol was added thereto. After treatment at 37° C. for 24 hr, the immature embryos in each group were evaluated for expression of the GUS gene in six grades: 4 (expressed in 75% or more of scutellum), 3 (expressed in 50% to 74% of scutellum), 2 (expressed in 25% to 49% of scutellum), 1 (expressed in 5% to 24% of scutellum), 0.5 (expressed in 1% to 4% of scutellum), and 0 (no expression).
A part of the immature embryos in each test group was harvested on the 5th day of the resting culture, and the GUS gene was expressed. The vertical axis in each of FIGS. 4, 5, and 6 represents the average of GUS gene expression by each immature embryo evaluated in six grades: 4 (expressed in 75% or more of scutellum), 3 (expressed in 50% to 74% of scutellum), 2 (expressed in 25% to 49% of scutellum), 1 (expressed in 5% to 24% of scutellum), 0.5 (expressed in 1% to 4% of scutellum), and 0 (no expression), that is, efficiency of gene introduction shown by expression of the GUS gene.

Row | SMILES | degree of GUS gene expression relative to coculture medium not containing plant hormones (FIG. 4) | degree of GUS gene expression relative to coculture medium not containing plant hormones (FIG. 5) | degree of GUS gene expression relative to coculture medium not containing plant hormones (FIG. 6)
1 | c1coc(CNc2ncnc3[nH]cnc23)c1 [kinetin] | slightly lower | – | –
2 | Nc1c(Cl)c(Cl)nc(C(=O)O)c1Cl [picloram] | – | equivalent to or slightly lower | slightly lower
3 | COc1c(Cl)ccc(Cl)c1C(=O)O [dicamba] | – | equivalent to or slightly lower | slightly lower
4 | O=C(O)COc1ccc(Cl)cc1Cl [2,4-D, 2,4-dichlorophenoxyacetic acid] | – | equivalent to or slightly lower | slightly lower
5 | O=C(Nc1ccccc1)Nc1ccncc1 [4PU] | slightly lower | – | –
